# Source: ChEMBL document CHEMBL5055675, “Apoptosis Inducing 1,3,4-Oxadiazole Conjugates of Capsaicin: Their In Vitro Antiproliferative and In Silico Studies” (ACS Med Chem Lett, 2021)
# Active and inactive are the calls of the source. The rule behind the calls is not given here.
# How the values were obtained:
# [1] = test system: SF-539; assay: Antiproliferative activity against human SF-539 cells assessed as cell growth at 10 uM incubated for 48 hrs by sulforhodamine B assay relative to control; type: functional; details: read-out: Activity
# [2] = test system: MDA-MB-468; assay: Antiproliferative activity against human MDA-MB-468 cells assessed as cell growth at 10 uM incubated for 48 hrs by sulforhodamine B assay relative to control; type: functional; details: read-out: Activity
# [3] = test system: SK-MEL-5; assay: Antiproliferative activity against human SK-MEL-5 cells assessed as cell growth at 10 uM incubated for 48 hrs by sulforhodamine B assay relative to control; type: functional; details: read-out: Activity
# [4] = test system: SR; assay: Antiproliferative activity against human SR cells assessed as cell growth at 10 uM incubated for 48 hrs by sulforhodamine B assay relative to control; type: functional; details: read-out: Activity
# [5] = test system: NCI-H23; assay: Antiproliferative activity against human NCI-H23 cells assessed as cell growth at 10 uM incubated for 48 hrs by sulforhodamine B assay relative to control; type: functional; details: read-out: Activity
# [6] = test system: SF-268; assay: Antiproliferative activity against human SF-268 cells assessed as cell growth at 10 uM incubated for 48 hrs by sulforhodamine B assay relative to control; type: functional; details: read-out: Activity
# [7] = test system: NCI-H460; assay: Antimigratory activity against human NCI-H460 cells assessed as inhibition of cell migration measured after 24 hrs by wound healing assay; type: functional, cell-based; details: dose 5-20 µM
# [8] = test system: CAKI-1; assay: Antiproliferative activity against human CAKI-1 cells assessed as cell growth at 10 uM incubated for 48 hrs by sulforhodamine B assay relative to control; type: functional; details: read-out: Activity
# [9] = test system: SN12C; assay: Antiproliferative activity against human SN12C cells assessed as cell growth at 10 uM incubated for 48 hrs by sulforhodamine B assay relative to control; type: functional; details: read-out: Activity
# [10] = test system: NCI-H460; assay: Antiproliferative activity against human NCI-H460 cells assessed as cell growth inhibition measured after 72 hrs by crystal violet staining based assay; type: functional; details: NCI-H460, 72 h
# [11] = test system: NCI-H460; assay: Induction of ROS production in human NCI-H460 cells at 20 uM incubated for 24 hrs by CM-H2DCFDA probe based flow cytometry analysis; type: functional, cell-based
# [12] = test system: NCI-H460; assay: Cell cycle arrest in human NCI-H460 cells assessed as accumulation of cells in G1 phase at 10 uM measured after 72 hrs by propidium iodide/RNase staining based flow cytometry analysis (Rvb= 62.9%); type: functional
# [13] = test system: OVCAR-4; assay: Antiproliferative activity against human OVCAR-4 cells assessed as cell growth at 10 uM incubated for 48 hrs by sulforhodamine B assay relative to control; type: functional; details: read-out: Activity
# [14] = test system: Hs-578T; assay: Antiproliferative activity against human Hs-578T cells assessed as cell growth at 10 uM incubated for 48 hrs by sulforhodamine B assay relative to control; type: functional; details: read-out: Activity
# [15] = test system: OVCAR-3; assay: Antiproliferative activity against human OVCAR-3 cells assessed as cell growth at 10 uM incubated for 48 hrs by sulforhodamine B assay relative to control; type: functional; details: read-out: Activity
# [16] = test system: NCI-H460; assay: Induction of apoptosis in human NCI-H460 cells assessed as decrease in pro-PARP expression level at 1 to 20 uM measured after 72 hrs by western blot analysis; type: functional, cell-based; details: dose 1-20 µM
# [17] = test system: NCI-H460; assay: Reduction in VEGFR2 mRNA expression in human NCI-H460 cells at 10 to 20 uM by real-time qPCR analysis; type: functional, cell-based; details: dose 10-20 µM
# [18] = test system: NCI-H460; assay: Cell cycle arrest in human NCI-H460 cells assessed as accumulation of cells in G2/M phase at 5 uM measured after 72 hrs by propidium iodide/RNase staining based flow cytometry analysis (Rvb= 10.22%); type: functional
# [19] = test system: COLO 205; assay: Antiproliferative activity against human COLO 205 cells assessed as cell growth at 10 uM incubated for 48 hrs by sulforhodamine B assay relative to control; type: functional; details: read-out: Activity
# [20] = test system: PC-3; assay: Antiproliferative activity against human PC-3 cells assessed as cell growth at 10 uM incubated for 48 hrs by sulforhodamine B assay relative to control; type: functional; details: read-out: Activity
# [21] = test system: MCF7; assay: Antiproliferative activity against human MCF7 cells assessed as cell growth at 10 uM incubated for 48 hrs by sulforhodamine B assay relative to control; type: functional; details: read-out: Activity
# [22] = test system: MDA-MB-435; assay: Antiproliferative activity against human MDA-MB-435 cells assessed as cell growth at 10 uM incubated for 48 hrs by sulforhodamine B assay relative to control; type: functional; details: read-out: Activity
# [23] = test system: NCI-H460; assay: Cell cycle arrest in human NCI-H460 cells assessed as accumulation of cells in S phase at 5 uM measured after 72 hrs by propidium iodide/RNase staining based flow cytometry analysis (Rvb= 26.87%); type: functional
# [24] = test system: NCI-H460; assay: Induction of apoptosis in human NCI-H460 cells assessed as early apoptotic cells at 20 uM measured after 72 hrs by Annexin V-FITC and propidium iodide staining based flow cytometry analysis (Rvb= 6.61%); type: functional
# [25] = test system: NCI-H522; assay: Antiproliferative activity against human NCI-H522 cells assessed as cell growth at 10 uM incubated for 48 hrs by sulforhodamine B assay relative to control; type: functional; details: read-out: Activity
# [26] = test system: M14; assay: Antiproliferative activity against human M14 cells assessed as cell growth at 10 uM incubated for 48 hrs by sulforhodamine B assay relative to control; type: functional; details: read-out: Activity
# [27] = test system: TK-10; assay: Antiproliferative activity against human TK-10 cells assessed as cell growth at 10 uM incubated for 48 hrs by sulforhodamine B assay relative to control; type: functional; details: read-out: Activity
# [28] = test system: HT-29; assay: Antiproliferative activity against human HT-29 cells assessed as cell growth at 10 uM incubated for 48 hrs by sulforhodamine B assay relative to control; type: functional; details: read-out: Activity
# [29] = molecular target: MAP kinase p38 (Homo sapiens) (UniProt O15264+Q15759+Q16539+P53778); assay: Inhibition of p38 MAPK phosphorylation in human NCI-H460 cells at 20 uM measured after 72 hrs by western blot analysis; type: cell-based
# [30] = test system: NCI-H460; assay: Induction of apoptosis in human NCI-H460 cells assessed as late apoptotic cells at 20 uM measured after 72 hrs by Annexin V-FITC and propidium iodide staining based flow cytometry analysis (Rvb= 6.93%); type: functional
# [31] = test system: NCI-H460; assay: Induction of apoptosis in human NCI-H460 cells assessed as late apoptotic cells at 5 uM measured after 72 hrs by Annexin V-FITC and propidium iodide staining based flow cytometry analysis (Rvb= 6.93%); type: functional
# [32] = test system: HCT-116; assay: Antiproliferative activity against human HCT-116 cells assessed as cell growth inhibition measured after 72 hrs by crystal violet staining based assay; type: functional; details: HCT-116, 72 h
# [33] = test system: PNT2; assay: Cytotoxicity against human PNT2 cells assessed as reduction in cell viability at 4 times IC50 measured after 72 hrs by crystal violet staining based assay; details: pnt2, 72 h
# [34] = test system: SK-OV-3; assay: Antiproliferative activity against human SK-OV-3 cells assessed as cell growth at 10 uM incubated for 48 hrs by sulforhodamine B assay relative to control; type: functional; details: read-out: Activity
# [35] = test system: NCI-H460; assay: Cell cycle arrest in human NCI-H460 cells assessed as accumulation of cells in G2/M phase at 10 uM measured after 72 hrs by propidium iodide/RNase staining based flow cytometry analysis (Rvb= 10.22%); type: functional
# [36] = test system: NCI-H460; assay: Cell cycle arrest in human NCI-H460 cells assessed as accumulation of cells in G2/M phase at 20 uM measured after 72 hrs by propidium iodide/RNase staining based flow cytometry analysis (Rvb= 10.22%); type: functional
SMILES,growth at 10 µM [1] [%],growth at 10 µM [2] [%],growth at 10 µM [3] [%],growth at 10 µM [4] [%],growth at 10 µM [5] [%],growth at 10 µM [6] [%],growth at 10 µM [9] [%],IC50 [10] [µM],growth at 10 µM [13] [%],growth at 10 µM [14] [%],growth at 10 µM [15] [%],growth at 10 µM [19] [%],growth at 10 µM [20] [%],growth at 10 µM [21] [%],growth at 10 µM [22] [%],growth at 10 µM [25] [%],growth at 10 µM [26] [%],growth at 10 µM [27] [%],growth at 10 µM [28] [%],growth at 10 µM [34] [%],also measured
COc1cc(CNC(=O)CCCC/C=C/C(C)C)ccc1OCc1nnc(Nc2ccc([N+](=O)[O-])cc2)o1,70.2,53.8,46.3,64.2,62.1,79.7,49,5.41,11.2,63.2,77.3,70.9,37.6,55.2,66.4,73,69.6,84.1,71.7,11.8,Activity [7]: Dose-dependent effect; growth at 10 µM [8]: 33.6%; Activity [11]: Active; Activity [12]: 59.13%; Activity [16]: Active; inhibition [17]: Active; Activity [18]: 10.03%; Activity [23]: 28.16%; Activity [24]: 21.15%; inhibition [29]: Active; Activity [30]: 17.44%; Activity [31]: 8.07%; IC50 [32]: 8.55 µM; Activity [33]: Non-Toxic; Activity [35]: 11.81%; Activity [36]: 8.706%
COc1cc(CNC(=O)CCCC/C=C/C(C)C)ccc1OCc1nnc(Nc2ccccc2F)o1,48.2,58.9,86.6,67.3,63.8,45.5,70.5,14.4,0.69,83.7,68.3,104,72.5,66.9,100,60.3,99.7,97.7,90,48.6,IC50 [32]: 10.5 µM
COc1cc(CNC(=O)CCCC/C=C/C(C)C)ccc1OCc1nnc(SCCc2c[nH]c3ccccc23)o1,80.8,51.8,105,49.3,66.6,78.9,83.1,9.89,71.7,81,88.3,71.2,56.9,58.8,90.2,59.4,–,91.7,69.7,85.7,IC50 [32]: 13.4 µM
COc1cc(CNC(=O)CCCC/C=C/C(C)C)ccc1OCc1nnc(Nc2cccc(Br)c2)o1,88.4,48.1,89.8,67.7,66,92.6,95.7,–,85.1,93.7,88,110,87.9,83.7,101,68.6,93.3,104,97.7,82.6,–
